Experimental data published in the supplement of paper PMC8617591.

Legend:
[1] = test system: Mycobacterium tuberculosis Erdman (autoluminescent); assay: total FIC90 (Loewe) at 90% inhibition, three-drug combination (log2); higher = more antagonistic
Description: (§1)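 DiaMOND equipotent three-drug combination dose responses (10 doses, 1.5- or 2-fold spacing, centred on IC90) against autoluminescent M. tuberculosis Erdman in 8 in vitro models. Read-out is OD600, or luminescence for the intracellular and dormancy models, normalised to untreated wells. Hill-fit Einf, AUC25 and GRinf are potency metrics; FIC50 and FIC90 are total Loewe fractional inhibitory concentrations as log2 (negative = synergy).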

[2] = test system: Mycobacterium tuberculosis Erdman (autoluminescent); assay: AUC25, normalised area under dose response up to IC25 (three-drug combination) (fraction (0-1)); higher = more potent at low dose
Description: as §1

[3] = test system: Mycobacterium tuberculosis Erdman (autoluminescent); assay: total FIC50 (Loewe) at 50% inhibition, three-drug combination (log2); higher = more antagonistic
Description: as §1

[4] = test system: Mycobacterium tuberculosis Erdman (autoluminescent); assay: Einf, fitted maximum growth inhibition of three-drug combination (fraction); higher = stronger maximal inhibition
Description: as §1

[5] = test system: Mycobacterium tuberculosis Erdman (autoluminescent); assay: GRinf, maximum normalised growth rate inhibition (three-drug combination) (unitless (-1 to 1)); higher = less effect (negative = killing)
Description: as §1

COc1nc2ccc(Br)cc2cc1[C@@H](c1ccccc1)[C@@](O)(CCN(C)C)c1cccc2ccccc12 [bedaquiline] + NNC(=O)c1ccncc1 [isoniazid] + CC(=O)NC[C@H]1CN(c2ccc(N3CCOCC3)c(F)c2)C(=O)O1 [linezolid]
Conditions	AUC25, [2]	Einf, [4]	GRinf, [5]	total FIC50, [3]	total FIC90, [1]
in vitro model: acidic pH 5.7, time point: constant (~7 days, model-specific)	0.106	0.912	-0.504	0.42	–
in vitro model: acidic pH 5.7, time point: terminal (~4-5 doublings, model-specific)	0.099	0.977	-0.207	0.426	0.522
in vitro model: intracellular J774, time point: constant = terminal	–	0.898	-0.0256	–	0.82

Conditions	AUC25, [2]	Einf, [4]	GRinf, [5]	total FIC50, [3]	total FIC90, [1]
in vitro model: butyrate, time point: constant (~7 days, model-specific)	0.0832	0.917	-0.00837	0.739	1.08
in vitro model: butyrate, time point: terminal (~4-5 doublings, model-specific)	0.0647	0.962	-0.0285	0.794	0.944
in vitro model: cholesterol 0.05 mM, time point: constant (~7 days, model-specific)	0.139	0.735	-0.291	0.27	–
in vitro model: cholesterol 0.05 mM, time point: terminal (~4-5 doublings, model-specific)	0.147	0.945	-0.463	4.34	0.413
in vitro model: cholesterol-high 0.2 mM, time point: constant (~7 days, model-specific)	0.114	0.955	-0.63	0.506	1.92
in vitro model: cholesterol-high 0.2 mM, time point: terminal (~4-5 doublings, model-specific)	0.0961	1	-0.702	0.549	0.793
in vitro model: dormancy (butyrate + nitrate, low O2), time point: constant (~7 days, model-specific)	0.0688	0.93	0.215	0.921	0.532
in vitro model: dormancy (butyrate + nitrate, low O2), time point: terminal (~4-5 doublings, model-specific)	0.0346	0.989	-0.127	0.777	0.255
in vitro model: standard 7H9 glycerol, time point: constant = terminal	0.0715	0.957	-0.0711	0.0514	-0.28
in vitro model: valerate, time point: constant (~7 days, model-specific)	0.107	0.928	-0.345	0.58	0.911
in vitro model: valerate, time point: terminal (~4-5 doublings, model-specific)	0.0588	0.959	-0.111	0.894	0.84

COc1nc2ccc(Br)cc2cc1[C@@H](c1ccccc1)[C@@](O)(CCN(C)C)c1cccc2ccccc12 [bedaquiline] + NNC(=O)c1ccncc1 [isoniazid] + CO[C@H]1/C=C/O[C@@]2(C)Oc3c(C)c(O)c4c(O)c(c(/C=N/N5CCN(C6CCCC6)CC5)c(O)c4c3C2=O)NC(=O)/C(C)=C\C=C\[C@H](C)[C@H](O)[C@@H](C)[C@@H](O)[C@@H](C)[C@H](OC(C)=O)[C@@H]1C [rifapentine]
Conditions	AUC25, [2]	Einf, [4]	GRinf, [5]	total FIC50, [3]	total FIC90, [1]
in vitro model: acidic pH 5.7, time point: constant (~7 days, model-specific)	0.0986	0.958	-0.468	0.854	–
in vitro model: acidic pH 5.7, time point: terminal (~4-5 doublings, model-specific)	0.0903	0.998	-0.375	0.671	0.815
in vitro model: intracellular J774, time point: constant = terminal	–	0.92	-0.0955	–	0.118

Conditions	AUC25, [2]	Einf, [4]	GRinf, [5]	total FIC50, [3]	total FIC90, [1]
in vitro model: butyrate, time point: constant (~7 days, model-specific)	0.0748	0.93	-0.0408	0.749	-0.0255
in vitro model: butyrate, time point: terminal (~4-5 doublings, model-specific)	0.0596	0.969	-0.0505	0.65	0.51
in vitro model: cholesterol 0.05 mM, time point: constant (~7 days, model-specific)	0.0859	0.689	-0.113	0.606	–
in vitro model: cholesterol 0.05 mM, time point: terminal (~4-5 doublings, model-specific)	0.0803	0.905	-0.101	0.573	0.195
in vitro model: cholesterol-high 0.2 mM, time point: constant (~7 days, model-specific)	0.0656	0.954	-0.564	0.787	–
in vitro model: cholesterol-high 0.2 mM, time point: terminal (~4-5 doublings, model-specific)	0.06	1	-0.621	0.962	0.847
in vitro model: dormancy (butyrate + nitrate, low O2), time point: constant (~7 days, model-specific)	0.0684	0.89	0.303	0.628	0.878
in vitro model: dormancy (butyrate + nitrate, low O2), time point: terminal (~4-5 doublings, model-specific)	0.0424	0.986	-0.0574	0.557	0.296
in vitro model: standard 7H9 glycerol, time point: constant = terminal	0.0599	0.942	-0.00945	0.229	-0.235
in vitro model: valerate, time point: constant (~7 days, model-specific)	0.0499	0.906	-0.146	0.867	–
in vitro model: valerate, time point: terminal (~4-5 doublings, model-specific)	0.0394	0.958	-0.122	1.05	1

COc1nc2ccc(Br)cc2cc1[C@@H](c1ccccc1)[C@@](O)(CCN(C)C)c1cccc2ccccc12 [bedaquiline] + NNC(=O)c1ccncc1 [isoniazid] + CO[C@H]1/C=C/O[C@@]2(C)Oc3c(C)c(O)c4c(O)c(c(/C=N/N5CCN(C)CC5)c(O)c4c3C2=O)NC(=O)/C(C)=C\C=C\[C@H](C)[C@H](O)[C@@H](C)[C@@H](O)[C@@H](C)[C@H](OC(C)=O)[C@@H]1C [rifampicin]
Conditions	AUC25, [2]	Einf, [4]	GRinf, [5]	total FIC50, [3]	total FIC90, [1]
in vitro model: acidic pH 5.7, time point: constant (~7 days, model-specific)	0.108	0.955	-0.45	0.796	–
in vitro model: acidic pH 5.7, time point: terminal (~4-5 doublings, model-specific)	0.089	0.99	-0.282	0.663	0.706
in vitro model: intracellular J774, time point: constant = terminal	–	0.965	-0.25	–	0.354

Conditions	AUC25, [2]	Einf, [4]	GRinf, [5]	total FIC50, [3]	total FIC90, [1]
in vitro model: butyrate, time point: constant (~7 days, model-specific)	0.102	0.946	-0.0859	0.575	0.602
in vitro model: butyrate, time point: terminal (~4-5 doublings, model-specific)	0.0879	0.977	-0.052	0.331	0.56
in vitro model: cholesterol 0.05 mM, time point: constant (~7 days, model-specific)	0.0808	0.689	-0.157	-0.117	–
in vitro model: cholesterol 0.05 mM, time point: terminal (~4-5 doublings, model-specific)	0.0785	0.918	-0.164	0.536	-0.254
in vitro model: cholesterol-high 0.2 mM, time point: constant (~7 days, model-specific)	0.0768	0.978	-0.43	0.606	–
in vitro model: cholesterol-high 0.2 mM, time point: terminal (~4-5 doublings, model-specific)	0.0551	0.998	-0.606	0.868	0.598
in vitro model: dormancy (butyrate + nitrate, low O2), time point: constant (~7 days, model-specific)	0.0706	0.908	0.222	0.635	0.621
in vitro model: dormancy (butyrate + nitrate, low O2), time point: terminal (~4-5 doublings, model-specific)	0.0374	0.987	-0.16	0.347	0.0703
in vitro model: standard 7H9 glycerol, time point: constant = terminal	0.0722	0.939	-0.0733	0.27	0.0151
in vitro model: valerate, time point: constant (~7 days, model-specific)	0.0578	0.912	-0.0907	1.13	–
in vitro model: valerate, time point: terminal (~4-5 doublings, model-specific)	0.0274	0.963	-0.0942	1.33	1.01
